From patent US11066414B2, “Cot modulators and methods of use thereof” (Gilead Sciences, Inc., priority 2015, dated 2021)
Like-named read-outs stand apart in the source and are kept apart here.

Tests used:
TNFα = assay: Cot Monocyte TNFα Cell Based Assay
Human Cot = Human Cot (Homo sapiens (Human), UniProt P41279); assay: High Throughput Cot Biochemical Assay
[1] = Homo sapiens, Monocyte, read-out: EC50 TNF, LPS-stimulated human monocytes, TNFα
[2] = IC50 HTRF, Cot HTRF (TR-FRET) biochemical assay
[3] = read-out: IC50 HTRF, Cot HTRF (TR-FRET) biochemical assay

Chain of Human Cot (P41279 30-397): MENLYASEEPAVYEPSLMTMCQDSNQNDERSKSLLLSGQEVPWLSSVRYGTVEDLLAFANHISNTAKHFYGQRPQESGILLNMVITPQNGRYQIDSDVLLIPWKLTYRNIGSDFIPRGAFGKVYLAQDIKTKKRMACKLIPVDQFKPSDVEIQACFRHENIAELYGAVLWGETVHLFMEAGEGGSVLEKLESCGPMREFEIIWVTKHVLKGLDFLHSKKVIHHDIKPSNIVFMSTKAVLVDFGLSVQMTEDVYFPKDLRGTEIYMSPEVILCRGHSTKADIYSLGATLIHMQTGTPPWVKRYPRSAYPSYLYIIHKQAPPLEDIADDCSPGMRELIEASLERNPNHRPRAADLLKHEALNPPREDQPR

EC50 (TNFα; [1]) [nM] | IC50 (Human Cot; [2]) [nM] | Structure (SMILES) | also measured
287 | 11 | CC(C)(C)CNc1c(C#N)cnc2c(Cl)cc(N[C@H](c3cn(C4(C(F)(F)F)CC4)nn3)c3cccn4nccc34)cc12 [Example 560, (S)-8-chloro-4-(neopentylamino)-6-((pyrazolo[1,5-a]pyridin-4-yl(1-(1-(trifluoromethyl)cyclopropyl)-1H-1,2,3-triazol-4-yl)methyl)amino)quinoline-3-carbonitrile] | –
9150 | 44 | CC[C@@H](Nc1c(C#N)cnc2c(Cl)cc(N[C@@H](c3cccnc3)c3cn(CC[N+](C)(CC)CC)nn3)cc12)c1ccccc1 [Example 212, 2-(4-((S)-((8-chloro-3-cyano-4-(((R)-1-phenylpropyl)amino)quinolin-6-yl)amino)(pyridin-3-yl)methyl)-1H-1,2,3-triazol-1-yl)-N,N-diethyl-N-methylethan-1-aminium] | –
78 | 3 | Cn1nnc2cccc([C@H](Nc3cc(C#N)c4ncc(C#N)c(NCC(C)(C)C)c4c3)c3cn(C4(C(F)(F)F)CC4)nn3)c21 [Example 527, (S)-6-(((1-methyl-1H-benzo[d][1,2,3]triazol-7-yl)(1-(1-(trifluoromethyl)cyclopropyl)-1H-1,2,3-triazol-4-yl)methyl)amino)-4-(neopentylamino)quinoline-3,8-dicarbonitrile] | –
2330 | 7 | N#Cc1cnc2c(Cl)cc(N[C@H](c3c[nH]nn3)c3csc4c3CCNC4)cc2c1Nc1ccc(F)c(Cl)c1 [Example 275, (S)-8-chloro-4-((3-chloro-4-fluorophenyl)amino)-6-(((4,5,6,7-tetrahydrothieno[2,3-c]pyridin-3-yl)(1H-1,2,3-triazol-4-yl)methyl)-amino)quinoline-3-carbonitrile] | –
544 | 16 | N#Cc1cnc2c(Cl)cc(N[C@@H](C3=CCOCC3)c3c[nH]nn3)cc2c1Nc1ccc(Cl)c(Cl)c1F [Example 211, (S)-8-chloro-4-((3,4-dichloro-2-fluorophenyl)amino)-6-(((3,6-dihydro-2H-pyran-4-yl)(1H-1,2,3-triazol-4-yl)methyl)amino)quinoline-3-carbonitrile] | –
– | – | Cc1nnc(C2(n3cc([C@@H](Nc4cc(Cl)c5ncc(C#N)c(NCC(C)(C)C)c5c4)c4ccc(F)nc4C)nn3)CC2)o1 [Example 806, (S)-8-chloro-6-(((6-fluoro-2-methylpyridin-3-yl)(1-(1-(5-methyl-1,3,4-oxadiazol-2-yl)cyclopropyl)-1H-1,2,3-triazol-4-yl)methyl)amino)-4-(neopentylamino)quinoline-3-carbonitrile] | EC50 (TNFα; Homo sapiens, Monocyte, read-out: EC50 TNF, LPS-stimulated human monocytes, TNFα TR-FRET): 28 nM; IC50 (Human Cot; IC50 HTRF, Cot HTRF (TR-FRET KinEASE) biochemical assay, 400 μM ATP): 3 nM
60 | 4 | Cc1ncsc1[C@H](Nc1cc(Cl)c2ncc(C#N)c(Nc3ccc(F)c(Cl)c3)c2c1)c1cn(C2CCN(C(C)(C)C)CC2)nn1 [Example 307, (R)-6-(((1-(1-(tert-butyl)piperidin-4-yl)-1H-1,2,3-triazol-4-yl)(4-methylthiazol-5-yl)methyl)amino)-8-chloro-4-((3-chloro-4-fluorophenyl)amino)quinoline-3-carbonitrile] | –
2710 | 26 | Cc1ncccc1[C@H](Nc1cc(Cl)c2ncc(C#N)c(N[C@H](CO)c3ccccc3)c2c1)c1c[nH]nn1 [Example 218, 8-chloro-4-(((S)-2-hydroxy-1-phenylethyl)amino)-6-(((S)-(2-methylpyridin-3-yl)(1H-1,2,3-triazol-4-yl)methyl)amino)quinoline-3-carbonitrile] | –
70 | 2 | CC(C)(C)N1CCC(n2cc([C@@H](Nc3cc(Cl)c4ncc(C#N)c(Nc5ccc(F)c(Cl)c5)c4c3)C3=CCOCC3)nn2)CC1 [Example 264, (S)-6-(((1-(1-(tert-butyl)piperidin-4-yl)-1H-1,2,3-triazol-4-yl)(3,6-dihydro-2H-pyran-4-yl)methyl)amino)-8-chloro-4-((3-chloro-4-fluorophenyl)-amino)quinoline-3-carbonitrile] | –
133 | 6 | Cc1nc(F)ccc1[C@H](Nc1cc(Cl)c2ncc(C#N)c(NC3CCOC3(C)C)c2c1)c1cn(C2(C(F)F)CC2)nn1 (stereo partly drawn) [Example 511, 8-chloro-6-(((S)-(1-(1-(difluoromethyl)-cyclopropyl)-1H-1,2,3-triazol-4-yl)(6-fluoro-2-methylpyridin-3-yl)methyl)amino)-4-((2,2-dimethyltetrahydrofuran-3-yl)amino)-quinoline-3-carbonitrile] | –
82 | 5 | Cn1cc([C@@H](Nc2cc(Cl)c3ncc(C#N)c(NCC(C)(C)C)c3c2)c2cccc3c(=O)n(C)ccc23)nn1 [Example 790, (S)-8-chloro-6-(((2-methyl-1-oxo-1,2-dihydroisoquinolin-5-yl)(1-methyl-1H-1,2,3-triazol-4-yl)methyl)amino)-4-(neopentylamino)quinoline-3-carbonitrile] | –
108 | 4 | CC(C)(C)CNc1c(C#N)cnc2c(Cl)cc(N[C@H](c3cn(C4(C(F)(F)F)CC4)nn3)c3cccc4c(=O)n(CC(F)F)ccc34)cc12 [Example 770, (S)-8-chloro-6-(((2-(2,2-difluoroethyl)-1-oxo-1,2-dihydroisoquinolin-5-yl)(1-(1-(trifluoromethyl)cyclopropyl)-1H-1,2,3-triazol-4-yl)methyl)amino)-4-(neopentylamino)quinoline-3-carbonitrile] | –
31 | 3 | CCC1(n2cc([C@@H](Nc3cc(Cl)c4ncc(C#N)c(NCC(C)(C)C)c4c3)c3ccc(F)nc3C)nn2)CC1 [Example 754, (S)-8-chloro-6-(((1-(1-ethylcyclopropyl)-1H-1,2,3-triazol-4-yl)(6-fluoro-2-methylpyridin-3-yl)methyl)amino)-4-(neopentylamino)quinoline-3-carbonitrile] | –
78 | 3 | Cc1nc(F)ccc1[C@H](Nc1cc(Cl)c2ncc(C#N)c(NCC(C)(C)C)c2c1)c1cn(CC(F)F)nn1 [Example 532, (S)-8-chloro-6-(((1-(2,2-difluoroethyl)-1H-1,2,3-triazol-4-yl)(6-fluoro-2-methyl-pyridin-3-yl)methyl)amino)-4-(neopentyl-amino)quinoline-3-carbonitrile] | –
5990 | 60 | CC(C)(C)N1CCC(n2cc([C@@H](Nc3cc(Cl)c4ncc(C#N)c(Nc5ccc(F)c(Cl)c5)c4c3)c3ccc4c(c3)CNC4)nn2)CC1 [Example 57, (S)-6-(((1-(1-(tert-butyl)piperidin-4-yl)-1H-1,2,3-triazol-4-yl)(isoindolin-5-yl)methyl)amino)-8-chloro-4-((3-chloro-4-fluorophenyl)amino)quinoline-3-carbonitrile] | –
> 1000 | – | N#Cc1cnc2c(Cl)cc(NC(c3ccccn3)c3ccccn3)cc2c1Nc1ccc(F)c(Cl)c1 [Example 377, 8-chloro-4-((3-chloro-4-fluoro-phenyl)amino)-6-((di(pyridin-2-yl)methyl)amino)quinoline-3-carbonitrile] | IC50 (Human Cot; [3]): 398 nM
311 | 45 | Cc1nc(F)ccc1[C@H](Nc1cc(Cl)c2ncc(C#N)c(NCC34CC(C3)C4)c2c1)c1cn(C2(C(F)(F)F)CC2)nn1 [Example 740, (S)-4-((bicyclo[1.1.1]pentan-1-ylmethyl)amino)-8-chloro-6-(((6-fluoro-2-methylpyridin-3-yl)(1-(1-(trifluoromethyl)cyclopropyl)-1H-1,2,3-triazol-4-yl)methyl)amino)quinoline-3-carbonitrile] | –
214 | 5 | Cc1nc2cccc([C@H](Nc3cc(C#N)c4ncc(C#N)c(NCC(C)(C)C)c4c3)c3cn(C4(C(F)(F)F)CC4)nn3)c2s1 [Example 430, (S)-6-(((2-methylbenzo[d]thiazol-7-yl)(1-(1-(trifluoromethyl)cyclopropyl)-1H-1,2,3-triazol-4-yl)methyl)amino)-4-(neopentylamino)quinoline-3,8-dicarbonitrile] | –
347 | 5 | Cc1ncsc1[C@H](Nc1cc(Cl)c2ncc(C#N)c(Nc3cccc(Cl)c3F)c2c1)c1c[nH]nn1 [Example 251, (R)-8-chloro-4-((3-chloro-2-fluorophenyl)amino)-6-(((4-methylthiazol-5-yl)(1H-1,2,3-triazol-4-yl)methyl)amino)quinoline-3-carbonitrile] | –
– | – | CC(C)(C)N1CCC(n2cc([C@@H](Nc3cc(Cl)c4ncc(C#N)c(Nc5ccc(F)c(Cl)c5)c4c3)c3cccnc3Cl)nn2)CC1 [Example 315, (S)-6-(((1-(1-(tert-butyl)piperidin-4-yl)-1H-1,2,3-triazol-4-yl)(2-chloropyridin-3-yl)methyl)arnino)-8-chloro-4-((3-chloro-4-fluorophenyl)amino)quinoline-3-carbonitrile] | EC50 (TNFα; read-out: EC50 TNF, LPS-stimulated human monocytes, TNFα): 132 nM; IC50 (Human Cot; [3]): 4 nM
50 | 3 | Cc1nc(F)ccc1[C@H](Nc1cc(Cl)c2ncc(C#N)c(NCC(C)(C)C)c2c1)c1cn(C(CF)CF)nn1 [Example 762, (S)-8-chloro-6-(((1-(1,3-difluoropropan-2-yl)-1H-1,2,3-triazol-4-yl)(6-fluoro-2-methylpyridin-3-yl)methyl)amino)-4-(neopentylamino)quinoline-3-carbonitrile] | –
– | – | COc1nccc2c([C@H](Nc3cc(Cl)c4ncc(C#N)c(NCC(C)(C)C)c4c3)c3nnn(C4(C(F)(F)F)CC4)c3F)cccc12 [Example 922, (S)-8-chloro-6-(((5-fluoro-1-(1-(trifluoromethyl)cyclopropyl)-1H-1,2,3-triazol-4-yl)(1-methoxylsoquinolin-5-yl)methyl)amino)-4-(neopentylamino)quinoline-3-carbonitrile] | EC50 (TNFα; read-out: EC50 TNF, LPS-stimulated human monocytes, TNFα TR-FRET): 225 nM; IC50 (Human Cot; read-out: IC50 HTRF, Cot HTRF (TR-FRET KinEASE) biochemical assay, 400 μM ATP): 11 nM
